Data from patent US6458983B1, “Method for synthesizing complexes of platinum with iminoethers and their use as antitumoral drugs and nucleotide-base modifiers” (priority 1998, dated 2002).
pIC50: −log10 of the molar value. Marks after values point to notes of the source that are not given here.

How the values were obtained:
[1] = tested on: colon carcinoma (LoVo); test: Inhibition of in vitro proliferation of human tumor cells, LoVo; type: cell-based; settings: 72 hours treatment, cell number vs untreated control; read-out: Inhibitory concentrations (IC50) Lo Vo
Experimental: (§1) The antitumoral activity of compounds having the formula trans-[PtCl2(NH3){Z-HN═C(OMe)Me}] (1) and trans-[PtCl2(NH3){E-HN═C(OMe)Me}] (2) was tested. Specifically, the antitumoral activity of compounds (1) and (2) was analyzed in experimental systems in vitro, testing for inhibition of the proliferation of human tumor cells in culture and in vivo by testing the increment in survival of mice carriers of P388 murine leukemia.
(§2) The inhibitory effect of compounds (1) and (2) on the in vitro proliferation of human tumor cells of ovarian carcinoma (A2780), pulmonary carcinoma (Calu), colon carcinoma (LoVo) and on an ovarian carcinoma line (A2780/cp8) with resistance to cisplatinum is presented in the following Table I.
(§3) Proliferation inhibition is expressed by means of IC50 values, which indicate the concentration of compound (μM) in the culture medium that determines a 50% reduction in the proliferation of the treated cells with respect to untreated cells.
(§4) The IC50 values were extrapolated from dose-response curves obtained by treating for 72 hours the tumor cells with various concentrations of the tested compounds dissolved in the culture medium and checking, at the end of the incubation period, the number of cells present in the treated samples with respect to the number of cells in the untreated samples (control).

[2] = tested on: pulmonary carcinoma (Calu); test: Inhibition of in vitro proliferation of human tumor cells, Calu; type: cell-based; settings: 72 hours treatment, cell number vs untreated control; read-out: Inhibitory concentrations (IC50) Calu
Experimental: as §1, §2, §3, §4

[3] = tested on: P388 murine leukaemia; test: Antitumoral activity in vivo, survival of P388 murine leukemia carrier mice; parameters: species or system B6D2F1 female mice
Experimental: as §1
The antiumoral activity in vivo of compounds 1 and 2, expressed as an increment in the survival of P388 murine leukemia carrier mice, was also tested.
(§5) ^a P388 leukemic cells (10^6/animal) were inoculated in the peritoneum in B6D2F1 female mice (body weight=18 g) on day 0; treatment with the platinum compounds, dissolved at the time of use in a physiological solution, was performed on days 1-7, administering IP the doses indicated in the table in a volume equal to 0.1 ml/10 g body weight.
^c ILS=(average of the days of survival of treated mice/average of days of survival of untreated mice) X 100.

[4] = tested on: ovarian carcinoma line (A2780/cp8) with resistance to cisplatinum; test: Inhibition of in vitro proliferation of human tumor cells, A2780/cp8; type: cell-based; settings: 72 hours treatment, cisplatinum-resistant line; read-out: Inhibitory concentrations (IC50) A2780/cp8
Experimental: as §1, §2, §3, §4

[5] = tested on: ovarian carcinoma (A2780); test: Inhibition of in vitro proliferation of human tumor cells, A2780; type: cell-based; settings: 72 hours treatment, cell number vs untreated control; read-out: Inhibitory concentrations (IC50) A2780
Experimental: as §1, §2, §3, §4

[6] = Body weight variation and toxicity in treated P388 carrier mice; type: in vivo; settings: at the end of the treatment
Experimental: as §5
^b Percentage variation of body weight of the animals at the end of the treatment.

[7] = background statement; cited from earlier work
[8] = tested on: tumor cells; settings: cited from earlier work
[9] = tested on: solid and lymphoproliferative murine tumors; settings: background statement; cited from earlier work
[10] = 10 mg/kg IP daily, ILS = (average survival days treated/untreated) × 100
[11] = 15 mg/kg IP daily, ILS = (average survival days treated/untreated) × 100
[12] = 20 mg/kg IP daily, ILS calculated on 4 animals

Question: Which results are given for `COC(C)=N.N.[Cl][Pt][Cl]` [Compound 1, trans-[PtCl2(NH3){Z-HN═C(OMe)Me}]]?
Answer: pIC50 [1]: 4.68; pIC50 [2]: 4.05; ILS [3, 10]: 165; ILS [3, 11]: 173; ILS [3, 12]: 190^d; pIC50 [4]: 4.46; pIC50 [5]: 4.43; Percentage variation of body weight ([6]; 10 mg/kg IP daily): −1.5%; Percentage variation of body weight ([6]; 15 mg/kg IP daily): −4.4%; Percentage variation of body weight ([6]; 20 mg/kg IP daily): −11.5%

Question: With `COC(C)=N.N.[Cl][Pt][Cl]` [Compound 2, trans-[PtCl2(NH3){E-HN═C(OMe)Me}]] as the compound, how does the pIC50 [1] read?
Answer: 5.15

Question: What about the pIC50 [2] of the same compound?
Answer: 4.26

Question: What about the ILS [3, 10] of the same compound?
Answer: 128

Question: And the ILS [3, 11]?
Answer: 152

Question: What about the ILS [3, 12] of the same compound?
Answer: 132^e

Question: What about the pIC50 [4] of the same compound?
Answer: 5.07

Question: What about the pIC50 [5] of the same compound?
Answer: 5.07

Question: And the “Percentage variation of body weight” value ([6]; 10 mg/kg IP daily)?
Answer: −1.8%

Question: What about the “Percentage variation of body weight” value ([6]; 15 mg/kg IP daily) of the same compound?
Answer: −3.1%

Question: And the “Percentage variation of body weight” value ([6]; 20 mg/kg IP daily)?
Answer: −10%

Question: For `N.N.[Cl][Pt+2][Cl]` [trans-DDP, trans-[PtCl2(NH3)2]], which antitumoral activity [7] is on record?
Answer: no antitumoral activity

Question: Which antitumoral activity [7] does the source give for `N.NC1CCCCC1.[OH][Pt]([OH])([Cl])[Cl]` [trans-[PtCl2(OH)2(NH3){NH2(C6H11)}]] here?
Answer: antitumoral activity in vitro and in vivo

Question: Which “cytotoxic effect in vitro against tumor cells” value [8] does the source give for `[Cl][Pt][Cl].c1ccncc1.c1ccncc1` [trans-[PtCl2(pyridine)2]] here?
Answer: higher cytotoxic effect in vitro against tumor cells than trans-DDP

Question: Which “antitumoral activity in vivo” value [9] does the source give for `COC(C)=N.COC(C)=N.[Cl][Pt][Cl]` [trans-[PtCl2{E-HN═C(OMe)Me}2]] here?
Answer: antitumoral activity in vivo
